Values quoted from earlier work in US7235142B2, “Non-toxic corrosion-protection rinses and seals based on cobalt” (University of Dayton, priority 2002, dated 2007).

Settings: pH 7

Compound	Solubility in Water [mM]
N.N.N.N.N.N.[Cl-].[Cl-].[Cl-].[Co+3] [Hexaammine cobalt (III) chloride]	220
N.N.N.N.N.[Cl][Co]([Cl])[Cl] [Pentaammine cobalt (III) chloride]	930
[O-][Cl+3]([O-])([O-])O [Sodium perchlorate]	15000
[O-][Cl+3]([O-])([O-])[O-].[O-][Cl+3]([O-])([O-])[O-].[Sr+2] [Strontium perchlorate]	11000
